In ChEMBL document CHEMBL1122277, “l-1,2,3,4-Tetrahydro-8-methoxy-5-(methylthio)-2-naphthalenamine: a potent and selective agonist at alpha 1-adrenoceptors” (J Med Chem, 1983):

Experiments:
Format in all cases: functional
Oryctolagus cuniculus [1] = assay: Blockade of the constrictor response to exogenously administered L-norepinephrine
Oryctolagus cuniculus [2] = species: Oryctolagus cuniculus; assay: (§1) Alpha-1-adrenergic potency measured in the isolated rabbit ear artery
Oryctolagus cuniculus [3] = species: Oryctolagus cuniculus; assay: as §1; remark: listed apart in the source

Compound `COC(=O)[C@@H]1[C@H]2C[C@H]3c4[nH]c5ccccc5c4CCN3C[C@@H]2CC[C@@H]1O` [YOHIMBINE] has a KB (Oryctolagus cuniculus [1]) of 4000 nM.
`COc1ccc(SC)c2c1CC(N)CC2` (centres undefined) was tested, and the EC50 (Oryctolagus cuniculus [2]) was 60 nM and the EC50 (Oryctolagus cuniculus [3]) was 9 nM.
With `COc1cc2nc(N3CCN(C(=O)c4ccco4)CC3)nc(N)c2cc1OC` [PRAZOSIN] the KB (Oryctolagus cuniculus [1]) was 2.7 nM.
